# Assays:
# [1] = test system: cholesterol-fed male New Zealand White rabbits; details: 8 weeks, compared to progression controls; cited from earlier work
# [2] = test system: hypercholesterolemic patients; details: 2.5 to 80 mg/day, 6 weeks; cited from earlier work
# [3] = test system: patients with CAD and LDL-C≧130 mg/dL; details: atorvastatin 80 mg
# Protocol: This is an 18-month, open-label, randomized, multicenter study in 341 patients with elevated LDL-C (≧130 mg/dL whether or not they are receiving lipid-lowering medication) who have had angiography. […] Patients must be Class I or II based on the Canadian Cardiovascular Society classification of angina severity, and must be able to complete 4 minutes of a Bruce protocol treadmill test, or a 20-W/min supine bicycle exercise test.
# The study is conducted in patients with LDL-C≧130 mg/dL and TG≦400 mg/dL who have asymptomatic or mildly to moderately symptomatic CAD (with or without antianginal therapy) and in whom a recanalization procedure is recommended. “Usual care” represents a heterogeneous mix of therapies that may include calcium channel blocker use or lipid-lowering therapy (including diet, behavior modification or antihyperlipidemic medication). Patients who have undergone angiography, or are about to undergo angiography, will be considered for this study based on the results of the angiogram and other inclusion criteria. The study will be performed using a common protocol at all study sites. […]
# All patients will be randomized to either Group 1 or Group 2 according to a randomization code. […] Usual care will be determined by the investigator or the patient's primary physician (or whoever typically decides the patient's follow-up care) as he or she sees fit. […]
# subjects and patients = details: over 400 subjects and patients; cited from earlier work
structure (smiles),measurement,setting,value
CC(C)c1c(C(=O)Nc2ccccc2)c(-c2ccccc2)c(-c2ccc(F)cc2)n1CC[C@@H](O)C[C@@H](O)CC(=O)O [atorvastatin],percentage of discernible thoracic aortic lesions,[1],reduced
same,reduction of extracellular matrix and smooth muscle cell area,[1],63%
same,reduction of size of iliac-femoral lesions,[1],approximately 68%
same,"HDL-C, apolipoprotein AI (apo AI) or Lp (a)",[2],No significant changes
same,apolipoprotein B (apo B),[2],significantly reduced
same,drug-related serious adverse events,[2],no drug-related serious adverse events
same,reduction of TG levels,[2],up to 32%
same,total cholesterol,[2],significantly reduced
same,patients who encountered an adverse heart event,"[3]; over 18 months, angioplasty group 21%",13%
same,"LDL cholesterol on treatment, average",[3]; from 140 mg/dL before treatment,77 mg/dL
same,most frequently occurring adverse events,subjects and patients,"headache, infection (mostly colds), constipation, and back pain"

# — patent US20080119561A1, “METHODS FOR PREVENTING OR DELAYING CATHETER- BASED RESVASCULARIZATION” (Pfizer Inc, priority 1998, published 2008)
